Read-outs that look alike come from different tables or passages of the source.

This note sets out measurements from patent US4029801A, “Pharmaceutical compositions and methods of treating hypertension” (priority 1970, dated 1977).

In one data set the test system is α-adrenoceptor. Kind of data set: α-Adrenoceptor antagonism on the guinea pig aortic strip. To be noted: for α-blockade pA2: Table 4; for α-adrenoceptor antagonism: result in words; for pA2 (α-adrenoceptor antagonism): guinea pig aortic strip. The text has this:
Carried out on the guinea pig aortic strip [Furchgott and Bhadrakom (1953) J. Pharmac. exp. Ther. 108, 129-143] by the method of Alps et al [Br. J. Pharmac. 1972 44, 52-62].

The test system of a further data set is blood pressure. Kind of data set: Tests for action on the cardiovascular system: hypotensive activity (activity in method 1, rats or cats, or method 2), reported in words. Type of data set: in vivo, rat, cat. The settings on record: standard test procedure, result in words. A digest of the protocol:
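Method 1: pentobarbitone-anaesthetised cats, test compounds i.v. at 0.1-25.6 mg/kg, aortic blood pressure, heart rate and left ventricular pressure recorded. Method 2: renal hypertensive rats (figure-8 ligature plus contralateral nephrectomy, 6 weeks), dosed IP or orally; systolic pressure by tail plethysmography before and 2 and 24 h post-dose versus controls.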

For another data set, the target named is T1, histamine (Cavia porcellus, UniProt P31389).
T1 construct: from tissue
T1 sequence (P31389 whole entry): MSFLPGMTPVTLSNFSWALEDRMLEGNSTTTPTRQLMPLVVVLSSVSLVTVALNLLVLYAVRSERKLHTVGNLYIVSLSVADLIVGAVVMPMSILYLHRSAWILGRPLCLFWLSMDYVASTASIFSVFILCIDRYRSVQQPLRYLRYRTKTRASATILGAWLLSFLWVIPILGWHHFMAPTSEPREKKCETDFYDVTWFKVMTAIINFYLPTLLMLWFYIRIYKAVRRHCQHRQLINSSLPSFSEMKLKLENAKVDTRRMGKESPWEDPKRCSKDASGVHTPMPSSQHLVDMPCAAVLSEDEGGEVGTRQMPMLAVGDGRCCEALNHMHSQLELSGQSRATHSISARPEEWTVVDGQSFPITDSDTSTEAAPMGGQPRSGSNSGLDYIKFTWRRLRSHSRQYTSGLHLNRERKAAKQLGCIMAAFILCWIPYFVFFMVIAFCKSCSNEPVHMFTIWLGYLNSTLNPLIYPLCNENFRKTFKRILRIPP
As to the kind of experiment: Antihistamine activity by the method of Alps et al. The settings on record: for antihistamine activity: result in words.

A further data set in a line: Antiarrhythmic activity. The settings on record: result in words.
The subject of data set [1] is blood pressure and heart rate. Kind of data set: Method 1 (rat): hypotensive activity in anaesthetised rats, i.v. To be noted: for minimal effective dose: Rattus norvegicus, iv; for Significant bradycardia (dose; decrease in heart rate of more than 30%): anaesthetised rat, i.v., cumulative dose.
Protocol: Rats were anaesthetised with pentobarbitone sodium (60 mg/kg) and the jugular vein, trachea and carotid artery were cannulated. […] A decrease in heart rate of more than 30% from control values was considered to be significant bradycardia.
The test system of another data set is systolic pressure. Kind of data set: Method 2: anti-hypertensive activity in renal hypertensive rats. In kind it is in vivo, rat. On the procedure: Method 2 (hypertensive rats)
Male or female rats are rendered hypertensive by applying a figure of 8 ligature around one kidney and contralateral nephrectomy. Blood pressure stabilises at a hypertensive level after 6 weeks. Systolic pressure is measured indirectly using a Decker Caudal Plethysmograph A control group of rats is run with each group treated with drug. Each group usually consists of six rats. Drugs are usually administered by the IP or oral routes. Pressures are read prior to drug administration and at two and 24 hours thereafter.
Falls in systolic blood pressure 2 hr after an oral dose of 40 mg/kg: >50
mm, +++; 50-30 mm, ++; 30-15 mm, +; <15 mm, ±. g Oral dose of 75 mg/kg
h Oral dose of 10 mg/kg. i Oral dose of 2.5 mg/kg.

Data set [2] can be described thus: Anti-inflammatory activity. Type of data set: in vivo. To be noted: result in words.
The next data set can be described thus: Depressant activity. In kind it is in vivo. To be noted: result in words.
Data set [3] concerns blood pressure and heart rate. Kind of data set: Method 1 (cat): blood pressure, heart rate and left ventricular pressure in anaesthetised cats, i.v. Type of data set: in vivo. The settings on record: 3.2 mg/kg. On the procedure:
Cats were anaesthetised with pentobarbitone sodium (30 mg/kg) and the cephalic vein, femoral and carotid arteries and trachea were cannulated. The carotid cannula was introduced into the left ventricle and the femoral cannula into the aorta. Blood pressure and heart rate were recorded from the aortic cannula and left ventricular pressure from the carotid cannula. The test compunds were administered intravenously (0.1-25.6 mg/kg).

A further data set concerns oxotremorine. Kind of data set: Antioxotremorine activity. To be noted: result in words. Type of data set: in vivo.
Another data set relates to tremorine. As to the kind of experiment: Anti-tremorine activity. Type of data set: in vivo. To be noted: result in words.
The nature of another data set: Anti-convulsant activity. In kind it is in vivo. The settings on record: result in words.
[4] abbreviates: Table 4, read-out: Antihistamine pA2 (converted).
Where [5] appears, read: 0.25 h, read-out: Hypotensive Activity.
The mark [6] stands for this setting: pA2 (antihistamine activity), Table 2.
The mark [7] stands for this setting: read-out: Significant hypotension (dose; fall of 30 mm mercury or more in diastolic pressure).

Turning to `O=C(NC1CCN(CCc2ccc3ccccc3c2)CC1)c1ccccc1` [Example 13, 1-[2-(2-Naphthyl)ethyl]-4-benzamidopiperidine], in the data set on α-adrenoceptor, the “α-blockade pA2” value is listed as 7.4 and the α-adrenoceptor antagonism entry is listed as “α-adrenoceptor antagonism”. Besides, in the data set on blood pressure, the hypotensive activity result was “hypotensive activity”. Further, the Kb on histamine (setting [4]) was 25.1 nM. The antihistamine activity result on histamine is given as “antihistamine”. Also, the antiarrhythmic activity entry in “Antiarrhythmic activity” is “antiarrythmic activities”. In addition, the minimal effective dose in data set [1] (setting [5]) was in the range of 1.6 to 3.2 mg/kg.

Turning to `O=C(CCCN1CCC(NC(=O)c2ccccc2)CC1)c1ccc(F)cc1` [Example 19, 1-[4-(4-Fluorophenyl)-4-oxobutyl]-4-benzamidopiperidine], in the data set with α-adrenoceptor, the “α-blockade pA2” value is listed as 7.5 and the “pA2 (α-adrenoceptor antagonism)” value stood at 7.4. Also, the “Pressure reduced to” value with systolic pressure (hypertensive rat, 10 mg/kg p.o., from 188 mmHg) amounted to 138 mmHg. For the same compound, the anti-inflammatory activity entry in [2] is given as “antiinflammatory activity”. The hypotensive activity entry with blood pressure was “marked hypotensive activity”. Further, the depressant activity entry in the data set “Depressant activity” is “depressant”. Also, in data set [3], the “Significant lowering of blood pressure” value turned out to be 38 mmHg, the cardiac effort index entry is “lowered”, the cardiac output entry was “decreased” and the heart rate lowered was determined as 28.9%. Further, the “myocardial contractile force decreased” value in data set [3] is 25.7%. At histamine (setting [6]), this compound had a Kb of 2.51 nM. Also, the antihistamine activity result on histamine is given as “antihistamine”. The minimal effective dose in data set [1] (setting [5]) is 0.8 mg/kg. In addition, the minimal effective dose in [1] (setting [7]) is 0.8 to 1.6 mg/kg. The “Significant bradycardia (dose; decrease in heart rate of more than 30%)” value in data set [1] was found to be 1.6 mg/kg.

Turning to `O=C(NC1CCN(CC(O)c2ccccc2)CC1)c1ccccc1` (stereo not shown) [Example 20, 1-(2-Hydroxy-2-phenylethyl)-4-benzamidopiperidine], the “α-blockade pA2” value in the data set with α-adrenoceptor was found to be 6.6. Moreover, the antioxotremorine activity entry in the data set with oxotremorine is on record as “antioxotremorine activity”. Further, in the data set on blood pressure, the hypotensive activity entry is given as “hypotensive activity”. Also, the antihistamine activity result on histamine is listed as “antihistamine”. In data set [1] (setting [5]), the minimal effective dose is 6.4 to 12.8 mg/kg.

With `O=C(NC1CCN(CCc2ccc([N+](=O)[O-])cc2)CC1)c1ccccc1` [Example 22, 1-[2-(p-Nitrophenyl)ethyl]-4-benzamidopiperidine], the hypotensive activity result with blood pressure is recorded as “hypotensive activity”. Further, in the data set “Depressant activity”, the depressant activity result is on record as “depressant”. Further, the minimal effective dose in [1] (setting [5]) is 25.6 mg/kg. In addition, the anti-tremorine activity result in the data set with tremorine was “anti-tremorine activities”.

`CC(=O)Nc1ccc(CCN2CCC(NC(=O)c3ccccc3)CC2)cc1` [Example 24, 1-[2-(p-Acetamidophenyl)ethyl]-4-benzamidopiperidine]: the hypotensive activity entry with blood pressure is reported as “hypotensive activity”. In addition, the depressant activity result in “Depressant activity” is on record as “depressant”. The minimal effective dose in [1] (setting [5]) was in the range of 6.4 to 12.8 mg/kg. The anti-tremorine activity result in the data set on tremorine is “anti-tremorine activities”.

Regarding `O=C(NC1CCN(CC(O)c2ccc(Cl)c(Cl)c2)CC1)c1ccccc1` (stereo not shown) [Example 36, 1-[2-(3,4-Dichlorophenyl)-2-hydroxyethyl]-4-benzamidopiperidine], in the data set on blood pressure, the hypotensive activity entry is reported as “hypotensive”. Further, in the data set “Anti-convulsant activity”, the anti-convulsant activity entry is listed as “anti-convulsant activities”. For the same compound, in data set [1] (setting [5]), the minimal effective dose is under 30 mg/kg.

For `O=C(NC1CCN(CCc2ccc(Cl)c(Cl)c2)CC1)c1ccccc1` [Example 37, 1-[2-(3,4-Dichlorophenyl)ethyl]-4-benzamidopiperidine], in the data set with α-adrenoceptor, the “α-blockade pA2” value came to 7.35 and the α-adrenoceptor antagonism entry is “α-adrenoceptor antagonism”. Moreover, the hypotensive activity result in the data set on blood pressure was “good hypotensive activity”. In addition, the Kb on histamine (setting [4]) was 3.98 nM. Besides, the antihistamine activity entry at histamine is recorded as “antihistamine”. Moreover, the minimal effective dose in [1] (setting [5]) was 1.6 to 3.2 mg/kg. The anti-tremorine activity entry with tremorine was “anti-tremorine activities”.

On to `O=C(NC1CCN(CCc2c(Cl)cccc2Cl)CC1)c1ccccc1` [Example 38, 1-[2-(2,6-Dichlorophenyl)ethyl]-4-benzamidopiperidine], for which the hypotensive activity result with blood pressure is “hypotensive activity”. In addition, in “Depressant activity”, the depressant activity result is given as “depressant activities”. Also, in data set [1] (setting [5]), the minimal effective dose was under 30 mg/kg. Moreover, in the data set with tremorine, the anti-tremorine activity result was “anti-tremorine”.

Consider `O=C(NC1CCN(CCCc2ccccc2)CC1)c1ccccc1` [Example 39, 1-[3-Phenylpropyl]-4-benzamidopiperidine], for which, in the data set with α-adrenoceptor, the “pA2 (α-adrenoceptor antagonism)” value came to 7.1. The α-adrenoceptor antagonism result in the data set on α-adrenoceptor is reported as “α-adrenoceptor antagonism”. Moreover, the hypotensive activity result with blood pressure was “good hypotensive activity”. In addition, the Kb is 2.51 nM at histamine (setting [4]) and 3.16 nM on histamine (setting [6]). In addition, the antihistamine activity result on histamine is recorded as “anti-histamine”. Besides, the minimal effective dose in data set [1] (setting [5]) fell in the range of 6.4 to 12.8 mg/kg; in data set [1] (setting [7]) it was 0.8 to 6.4 mg/kg. Further, in data set [1], the “Significant bradycardia (dose; decrease in heart rate of more than 30%)” value stood at 25.6 mg/kg. Further, the anti-tremorine activity entry with tremorine was “anti-tremorine activities”.

As for `O=C(CCCN1CCC(NC(=O)c2ccccc2)CC1)c1ccc(F)cc1` [Example 42, 4-benzamido-1-[4-(p-fluorophenyl)-4-oxobutyl]-piperidine], the α-adrenoceptor antagonism entry with α-adrenoceptor was “α-adrenoceptor antagonist”. The anti-inflammatory activity result in data set [2] is “anti-inflammatory activity”. In addition, the hypotensive activity result in the data set on blood pressure is given as “marked hypotensive activity”. For the same compound, at histamine, the antihistamine activity entry is “antihistamine”.

For `O=C(CCCN1CCC(NC(=O)c2ccccc2)CC1)c1ccccc1` [Example 43, 4-Benzamido-1-(4-phenyl-4-oxobutyl)piperidine], in the data set on α-adrenoceptor, the “pA2 (α-adrenoceptor antagonism)” value was determined as 7.7 and the α-adrenoceptor antagonism entry is on record as “α-adrenoceptor antagonist”. Besides, in the data set with systolic pressure (Table 3, fall in systolic blood pressure 2 hr after oral dose of 40 mg/kg), the “Anti-hypertensive Activity” value was “+ ++”. In the data set with systolic pressure (hypertensive rat, 40 mg/kg p.o., from 174 mmHg), the “Pressure reduced to” value came to 122 mmHg. In the data set on blood pressure, the hypotensive activity result was “marked hypotensive activity”. Besides, in data set [3], the “Significant lowering of blood pressure” value amounted to 52 mmHg, the cardiac effort index entry was “lowered”, the cardiac output entry is “lowered” and the heart rate lowered stood at 35%. Further, the “myocardial contractile force decreased” value in [3] was 33%. In addition, on histamine (setting [4]), the Kb was 0.251 nM. This compound gave a Kb at histamine (setting [6]) of 0.316 nM. Besides, the antihistamine activity result on histamine was “antihistamine”. The antiarrhythmic activity entry in “Antiarrhythmic activity” is listed as “antiarrythmic activities”. The minimal effective dose in data set [1] (setting [5]) was 0.8 mg/kg. In addition, the minimal effective dose in data set [1] (setting [7]) was 0.8 to 1.6 mg/kg. Further, in data set [1], the “Significant bradycardia (dose; decrease in heart rate of more than 30%)” value is 0.8 to 1.6 mg/kg.

As for `O=C(NC1CCN(CCc2ccc(Cl)cc2)CC1)c1ccccc1` [Example 48, 4-Benzamido-1-[2-(p-chlorophenyl)ethyl]piperidine], the hypotensive activity entry with blood pressure is given as “hypotensive activity”. For the same compound, in the data set “Anti-convulsant activity”, the anti-convulsant activity result was “anti-convulsant activity”. Further, the minimal effective dose in [1] (setting [5]) was in the range of 6.4 to 12.8 mg/kg.

For the compound `O=C(CCCN1CCC(NC(=O)c2ccccc2)CC1)c1ccc(Cl)cc1` [Example 51, 4-Benzamido-1-[4-(p-chlorophenyl)-4-oxobutyl]piperidine], in the data set with α-adrenoceptor, the “α-blockade pA2” value turned out to be 8.4 and the α-adrenoceptor antagonism result is recorded as “highly potent α-adrenoceptor antagonist activity”. Also, in data set [2], the anti-inflammatory activity result is recorded as “anti-inflammatory activity”. In addition, the hypotensive activity result with blood pressure is “hypotensive activity”. Moreover, the Kb at histamine (setting [4]) is 20 nM. Also, the antihistamine activity entry at histamine is given as “anti-histamine”. Moreover, the minimal effective dose in data set [1] (setting [5]) lay in the range of 6.4 to 12.8 mg/kg.

For `O=C(NC1CCN(CCCC(O)c2ccc(F)cc2)CC1)c1ccccc1` (stereo not shown) [Example 54, 1-[4-(p-Fluorophenyl)-4-hydroxybutyl]-4-benzamidopiperidine], the “pA2 (α-adrenoceptor antagonism)” value in the data set on α-adrenoceptor worked out at 6.6. Besides, in the data set on systolic pressure (hypertensive rat, 10 mg/kg, from 209 mmHg), the “Pressure reduced to” value amounted to 164 mmHg. Further, the toxicity result in the data set on systolic pressure (hypertensive rat, 40 m.p.k.) is “Toxic”. For the same compound, in the data set with blood pressure, the hypotensive activity result is “hypotensive activity”. Also, the Kb at histamine (setting [6]) was 316 nM. On histamine, the antihistamine activity entry is “potent antihistamine activity”. Moreover, the minimal effective dose in data set [1] (setting [5]) and in data set [1] (setting [7]) was 6.4 to 12.8 mg/kg throughout. In addition, the “Significant bradycardia (dose; decrease in heart rate of more than 30%)” value in [1] fell in the range of 6.4 to 12.8 mg/kg.
